Test results taken from patent publication US9687479B2, “Multisubstituted aromatic compounds as serine protease inhibitors” (VERSEON CORPORATION, priority 2013, dated 2017).

Target: Human thrombin (Homo sapiens (Human), UniProt P00734)
Test: Thrombin protease activity inhibition assay (chromogenic substrate S-2238)
Format: biochemical
Settings: 3 nM thrombin, 125 μM S-2238, 10 min pre-incubation, RT
Summary of the method: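 Ten-point, three-fold serial dilutions of compound tested against 3 nM enzyme at RT in Tris buffer (0.05 M, pH 7.4) with 0.015 M NaCl and 0.01% PEG-8000.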

| SMILES | IC50 [nM] |
| --- | --- |
| COc1ccccc1C(=O)n1nc(-c2cccn(Cc3ncccn3)c2=O)cc1NCc1ccc(Cl)s1 [Cmpd 142, 3-(5-[(5-chlorothiophen-2-yl)methyl]amino-1-[(2-methoxyphenyl)carbonyl]-1H-pyrazol-3-yl)-1-(pyrimidin-2-ylmethyl)-1,2-dihydropyridin-2-one] | < 100 |
| COc1ccccc1C(=O)n1nc(-c2cccn(Cc3ccsc3)c2=O)cc1NCc1ccc(Cl)s1 [Cmpd 144, 3-(5-[(5-chlorothiophen-2-yl)methyl]amino-1-[(2-methoxyphenyl)carbonyl]-1H-pyrazol-3-yl)-1-(thiophen-3-ylmethyl)-1,2-dihydropyridin-2-one] | < 100 |
| Cn1cccc(-c2cc(NCc3ccc(Cl)s3)n(C(=O)c3ccc(C(C)(C)C)cc3)n2)c1=O [Cmpd 254, 3-1-[(4-tert-butylphenyl)carbonyl]-5-[(5-chlorothiophen-2-yl)methyl]amino-1H-pyrazol-3-yl-1-methyl-1,2-dihydropyridin-2-one] | < 100 |
| O=c1c(-c2cc(NCc3ccc(Cl)s3)[nH]n2)cccn1Cc1ccc2ccccc2c1 [Cmpd 225, 3-(5-[(5-chlorothiophen-2-yl)methyl]amino-1H-pyrazol-3-yl)-1-(naphthalen-2-ylmethyl)-1,2-dihydropyridin-2-one] | > 100000 |
| O=C(c1ccc(N2CCOCC2)cc1)n1nc(-c2cccn(Cc3ccsc3)c2=O)cc1NCc1ccc(Cl)s1 [Cmpd 217, 3-(5-[(5-chlorothiophen-2-yl)methyl]amino-1-[4-(morpholin-4-yl)phenyl]carbonyl-1H-pyrazol-3-yl)-1-(thiophen-3-ylmethyl)-1,2-dihydropyridin-2-one] | < 100 |
| Nc1cc(-c2ccc[nH]c2=O)nn1C(=O)c1ccco1 [Cmpd 255, 3-5-amino-1-[(furan-2-yl)carbonyl]-1H-pyrazol-3-yl-1,2-dihydropyridin-2-one] | 1000 to 10000 |
| COCC(C)(C)C(=O)n1nc(-c2ccc[nH]c2=O)cc1NCc1ccc(Cl)s1 [Cmpd 96, 3-(5-[(5-chlorothiophen-2-yl)methyl]amino-1-(3-methoxy-2,2-dimethylpropanoyl)-1H-pyrazol-3-yl)-1,2-dihydropyridin-2-one] | < 100 |
| COCC(C)(C)C(=O)n1nc(-c2cccn(CCN3CCOCC3)c2=O)cc1NCc1ccc(Cl)s1 [Cmpd 107, 3-(5-[(5-chlorothiophen-2-yl)methyl]amino-1-(3-methoxy-2,2-dimethylpropanoyl)-1H-pyrazol-3-yl)-1-[2-(morpholin-4-yl)ethyl]-1,2-dihydropyridin-2-one] | < 100 |
| CC1(C(=O)n2nc(-c3cccn(Cc4ncccn4)c3=O)cc2NCc2ccc(Cl)s2)CCOCC1 [Cmpd 156, 3-(5-[(5-chlorothiophen-2-yl)methyl]amino-1-[(4-methyloxan-4-yl)carbonyl]-1H-pyrazol-3-yl)-1-(pyrimidin-2-ylmethyl)-1,2-dihydropyridin-2-one] | < 100 |
| O=C(c1cccs1)n1nc(-c2cccn(Cc3cccnn3)c2=O)cc1NCc1ccc(Cl)s1 [Cmpd 185, 3-(5-[(5-chlorothiophen-2-yl)methyl]amino-1-[(thiophen-2-yl)carbonyl]-1H-pyrazol-3-yl)-1-(pyridazin-3-ylmethyl)-1,2-dihydropyridin-2-one] | > 100000 |
| CC(C)(C)OC(=O)Cn1cccc(-c2cc(NCc3ccc(Cl)s3)n(C(=O)C(C)(C)C)n2)c1=O [Cmpd 261, tert-butyl 2-[3-(5-[(5-chlorothiophen-2-yl)methyl]amino-1-(2,2-dimethylpropanoyl)-1H-pyrazol-3-yl)-2-oxo-1,2-dihydropyridin-1-yl]acetate] | < 100 |
| O=C(Cn1cccc(-c2cc(NCc3ccc(Cl)s3)n[nH]2)c1=O)N1CCOCC1 [Cmpd 233, 3-(5-[(5-chlorothiophen-2-yl)methyl]amino-1H-pyrazol-3-yl)-1-[2-(morpholin-4-yl)-2-oxoethyl]-1,2-dihydropyridin-2-one] | 1000 to 10000 |
| COc1ccccc1C(=O)n1nc(-c2cccn(Cc3cccs3)c2=O)cc1NCc1ccc(Cl)s1 [Cmpd 143, 3-(5-[(5-chlorothiophen-2-yl)methyl]amino-1-[(2-methoxyphenyl)carbonyl]-1H-pyrazol-3-yl)-1-(thiophen-2-ylmethyl)-1,2-dihydropyridin-2-one] | < 100 |
| O=C(c1ccc(N2CCOCC2)cc1)n1nc(-c2cccn(Cc3ccccn3)c2=O)cc1NCc1ccc(Cl)s1 [Cmpd 212, 3-(5-[(5-chlorothiophen-2-yl)methyl]amino-1-[4-(morpholin-4-yl)phenyl]carbonyl-1H-pyrazol-3-yl)-1-(pyridin-2-ylmethyl)-1,2-dihydropyridin-2-one] | < 100 |
| O=c1c(-c2cc(NCc3ccc(Cl)s3)[nH]n2)cccn1Cc1ccoc1 [Cmpd 223, 3-(5-[(5-chlorothiophen-2-yl)methyl]amino-1H-pyrazol-3-yl)-1-(furan-3-ylmethyl)-1,2-dihydropyridin-2-one] | 1000 to 10000 |
| COCCOc1ccc(C(=O)n2nc(-c3ccc[nH]c3=O)cc2NCc2ccc(Cl)s2)cc1 [Cmpd 206, 3-(5-[(5-chlorothiophen-2-yl)methyl]amino-1-[4-(2-methoxyethoxy)phenyl]carbonyl-1H-pyrazol-3-yl)-1,2-dihydropyridin-2-one] | < 100 |
| COc1ccccc1C(=O)n1nc(-c2cccn(CC(=O)OC(C)(C)C)c2=O)cc1NCc1ccc(Cl)s1 [Cmpd 262, tert-butyl 2-[3-(5-[(5-chlorothiophen-2-yl)methyl]amino-1-[(2-methoxyphenyl)carbonyl]-1H-pyrazol-3-yl)-2-oxo-1,2-dihydropyridin-1-yl]acetate] | < 100 |
| O=C(c1ccsc1)n1nc(-c2cccn(Cc3cccnn3)c2=O)cc1NCc1ccc(Cl)s1 [Cmpd 197, 3-(5-[(5-chlorothiophen-2-yl)methyl]amino-1-[(thiophen-3-yl)carbonyl]-1H-pyrazol-3-yl)-1-(pyridazin-3-ylmethyl)-1,2-dihydropyridin-2-one] | < 100 |
| CC(C)(C)C(=O)n1nc(-c2cccn(Cc3ccc(Cl)cc3)c2=O)cc1NCc1ccc(Cl)s1 [Cmpd 35, 1-[(4-chlorophenyl)methyl]-3-(5-[(5-chlorothiophen-2-yl)methyl]amino-1-(2,2-dimethylpropanoyl)-1H-pyrazol-3-yl)-1,2-dihydropyridin-2-one] | < 100 |
| O=C(c1ccoc1)n1nc(-c2cccn(Cc3cccnc3)c2=O)cc1NCc1ccc(Cl)s1 [Cmpd 177, 3-(5-[(5-chlorothiophen-2-yl)methyl]amino-1-[(furan-3-yl)carbonyl]-1H-pyrazol-3-yl)-1-(pyridin-3-ylmethyl)-1,2-dihydropyridin-2-one] | < 100 |
| O=c1c(-c2cc(NCc3ccc(Cl)s3)n[nH]2)cccn1Cc1cccs1 [Cmpd 231, 3-(5-[(5-chlorothiophen-2-yl)methyl]amino-1H-pyrazol-3-yl)-1-(thiophen-2-ylmethyl)-1,2-dihydropyridin-2-one] | 1000 to 10000 |
| COc1ccc(C(=O)n2nc(-c3cccn(Cc4ccncc4)c3=O)cc2NCc2ccc(Cl)s2)c(OC)c1 [Cmpd 127, 3-(5-[(5-chlorothiophen-2-yl)methyl]amino-1-[(2,4-dimethoxyphenyl)carbonyl]-1H-pyrazol-3-yl)-1-(pyridin-4-ylmethyl)-1,2-dihydropyridin-2-one] | < 100 |
| Cn1cccc(-c2cc(NCc3ccc(Cl)s3)n(C(=O)C3(C)COC3)n2)c1=O [Cmpd 148, 3-(5-[(5-chlorothiophen-2-yl)methyl]amino-1-[(3-methyloxetan-3-yl)carbonyl]-1H-pyrazol-3-yl)-1-methyl-1,2-dihydropyridin-2-one] | 100 to 1000 |
